Assay results published in patent publication US7670579B2, “Nanostructured bioactive materials prepared by dual nozzle spray drying techniques” (American Dental Association Foundation, priority 2004, dated 2010).

Legend:
[1] = Solubility of salts in saturated spray drying solutions (Table 2); assay type: physicochemical
Description: Other examples of the methods of the invention include formation of nano particles of other components. For example, compositions of solution to be spray dried for preparing nano particles of various calcium phosphate phases are set forth in Table 2. Because MCPM is highly soluble, the solution for the nano MCPM production can be prepared by dissolving an appropriate amount of MCPM or other sources of Ca (for example CaCO3) and P (for example H3PO4) in a solution of the desired concentration (Table 2). For the preparation of nano particles of other calcium phosphates, a volatile weak acid is used to facilitate solubilization of the calcium phosphate ions. […] In general, a minimum amount of the volatile weak acid, necessary to keep the calcium and phosphate ions in the solution, is used to facilitate the removal of the acid in the spray drying process.

[2] = cited from earlier work
[3] = Reaction of CaF2 with macro DCPD in water paste, XRD; assay type: physicochemical; details: paste with water 1g/1 mL, 100% humidity, 37° C., 24 h
Description: In another test, mixtures containing a macro (median size 1.6 μm) DCPD and either the nano CaF2 or a macro CaF2 were mixed with water (1g/1 mL) and the pastes were left in 100% humidity at 37° C. for 24 h.

[4] = comparison value for crystalline CaF2; cited from earlier work
[5] = acetic acid, high: DCPD/DCPA 996, OCP 995, ACP/TCP 985, HA 998 mmol/L
[6] = acetic acid, low: DCPD/DCPA 0, OCP 0.04, ACP/TCP 0, HA 0.122 mmol/L
[7] = carbonic acid, high: DCPD/DCPA 1000 mol/L, OCP 1018, ACP/TCP 1152, HA 1004 mmol/L
[8] = carbonic acid, low: DCPD/DCPA 0, OCP 0.04, ACP/TCP 0, HA 0.164 mmol/L

Compound	[Ca] of saturated solution [1, 5] [mmol/L]	[P] of saturated solution [1, 5] [mmol/L]	pH of saturated solution [1, 5]	[Ca] of saturated solution [1, 6] [mmol/L]	[P] of saturated solution [1, 6] [mmol/L]	pH of saturated solution [1, 6]	[Ca] of saturated solution [1, 7] [mmol/L]	[P] of saturated solution [1, 7] [mmol/L]	pH of saturated solution [1, 7]	[Ca] of saturated solution [1, 8] [mmol/L]	[P] of saturated solution [1, 8] [mmol/L]	pH of saturated solution [1, 8]	IAP(HA) ([2]; comparison value for crystalline HA)	pIAP(HA) ([2]; comparison value for macro scale HA)	consumption of CaF2 by reaction with DCPD (XRD) [3]	Ksp [4]
Hydroxyapatite [HA]	132	79	3.9	0.1	0.06	6.8	14.2	8.54	4.6	0.1	0.06	6.8	1×10^−117	117		
[Ca+2].[F-].[F-] [crystalline CaF2, Calcium fluoride]															no reduction	3.9×10^−11
